Results as given in paper PMC7408095 (Pharmaceutics, 2020).
Where two headings read alike, the source gives them in different places. Values belong to the compound of their own block, whether it stands above or below them.

Experiments:
[1] = Adverse effects of the doses used in healthy rats; type: in vivo
[2] = rat, in vivo, 20 mg/kg; cited from earlier work
[3] = rat, in vivo, po, 20 mg/kg
Description: (§1) The concentration of each of the working solutions was 10 μg/mL. The sample preparation involved liquid-liquid extraction. […] The analytes were separated in a Zorbax Plus C18 column (100 × 2.1 mm; 3.5 μm) (Agilent Technologies, Santa Clara, California, USA) at a column temperature of 40 °C. The mobile phase was a mixture of de-ionized water (A) and acetonitrile (B), both containing 0.1% (v/v) formic acid. […] The mobile phase flow was set to 0.3 mL/min. The eluent from the HPLC column was introduced directly to the MS interface, using electrospray ionization in the positive ion mode. The MS parameters were as follows: interface temperature, 350 °C; DL temperature, 250 °C; heat block temperature, 400 °C; nebulizing gas flow, 2 L/min; and drying gas flow, 15 L/min. The electrospray needle voltage was 3.5 kV. The specific transitions for the analytes were monitored using the multiple reaction monitoring (MRM) mode.

[4] = cited from earlier work
in vivo = details: male, Wistar, rat, plasma, po, 100 mg/kg
Excerpt: (§2) The Phoenix® WinNonlin version 8.0 software (Certara, Princeton, New Jersey, USA) was used for the calculation of the following pharmacokinetic parameters: • The elimination rate constant (ke); • The absorption rate constant (ka); • The elimination half-life (t1/2); • The maximum plasma concentration (Cmax); • The time to reach the Cmax (tmax); • The total area under the concentration–time curve (AUC0-t and AUC0--∞); • The apparent plasma drug clearance (Cl/F); • The apparent volume of distribution (Vd/F).

[5] = Plasma pharmacokinetics of metformin in rats (HPLC-UV)
Excerpt: as §2

[6] = cited from earlier work; remark: listed apart in the source
[7] = Plasma pharmacokinetics of sorafenib and sorafenib N-oxide in rats (HPLC-UV); details: for AUC0-t / AUC(0-inf) / Cmax / Vd/F / k el / half-life: male, Wistar, rat, plasma, po, 100 mg/kg; for AUC0-t / AUC(0-inf) / Cmax / Vd/F / k el / ka: rat plasma; for AUC(0-inf): AUC0-∞; for k el: kel; for half-life: t1/2, rat plasma;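 as to all read-outs here: pharmacokinetic parameters were computed with Phoenix WinNonlin 8.0 software from the plasma concentration–time curve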
Excerpt: as §2

[8] = Plasma pharmacokinetics of atorvastatin, 2-OH AT and 4-OH AT in rats (UPLC-MS/MS); details: for AUC0-t / AUC0-∞ / Cmax / metabolite/atorvastatin Cmax ratio: rat plasma
Description: as §1

[9] = rat, in vivo, po, 100 mg/kg
Excerpt: as §2

[10] = rat plasma, single oral sorafenib 100 mg/kg + metformin 100 mg/kg b.w. (IISOR+MET group)
[11] = single oral sorafenib 100 mg/kg + atorvastatin 20 mg/kg b.w. (ISOR+AT group)
[12] = single oral sorafenib 100 mg/kg + metformin 100 mg/kg b.w. (IISOR+MET group)
[13] = single oral sorafenib 100 mg/kg b.w. alone (IIISOR group)
[14] = rats, IISOR+MET group vs IIISOR group
[15] = rats, ISOR+AT group vs IIISOR group
[16] = single oral atorvastatin 20 mg/kg b.w. alone (IVAT group)
[17] = rats, ISOR+AT group vs IVAT group

Compound: CC(C)c1c(C(=O)Nc2ccccc2)c(-c2ccccc2)c(-c2ccc(F)cc2)n1CC[C@@H](O)C[C@@H](O)CC(=O)O [Atorvastatin, atorvastatin]
adverse effects ([1]; 20 mg/kg single oral dose): did not cause any adverse effects | safety [2]: safe

Compound: CC(C)c1c(C(=O)Nc2ccc(O)cc2)c(-c2ccccc2)c(-c2ccc(F)cc2)n1CC[C@@H](O)C[C@@H](O)CC(=O)O [4-OH AT, 4-hydroxy atorvastatin]
AUC0-t [3]: 14.63 ± 5.57 (38.1) ng × h/mL | AUC0-∞ [3]: 19.22 ± 7.06 (36.7) ng × h/mL

Compound: CC(C)c1c(C(=O)Nc2ccccc2O)c(-c2ccccc2)c(-c2ccc(F)cc2)n1CCC(O)CC(O)CC(=O)O (stereo not drawn) [2-OH AT, 2-hydroxy atorvastatin]
AUC0-t [8, 16]: 617.32 ± 277.54 (45.0) ng × h/mL | AUC0-∞ [8, 16]: 695.68 ± 297.16 (42.7) ng × h/mL | Cmax [8, 16]: 175.20 ± 116.62 (66.6) ng/mL | metabolite/atorvastatin Cmax ratio [8, 16]: 2.35 ± 1.12 (47.6) ng/mL | AUC0-t [8, 11]: 958.91 ± 342.91 (35.8) ng × h/mL | AUC0-∞ [8, 11]: 993.97 ± 343.87 (34.6) ng × h/mL | Cmax [8, 11]: 185.82 ± 90.16 (48.5) ng/mL | metabolite/atorvastatin Cmax ratio [8, 11]: 2.43 ± 1.06 (43.6) ng/mL | change in the 2-OH AT/atorvastatin ratio for AUC0-t [8, 17]: −19.4% | change in the 2-OH AT/atorvastatin ratio for AUC0-∞ [8, 17]: −26.0% | increase in AUC caused by sorafenib (abstract) [8, 17]: 55.3%

More lines, main results first:

AUC0-t (in vivo): 3830 ± 1230 ng·h/mL | AUC(0-inf) (in vivo): 7900 ± 1930 ng·h/mL | Cmax (in vivo): 500 ± 290 ng/mL | MRT last (in vivo): 9.81 ± 1.27 h | Vd/F (in vivo): 228 ± 91 L | k el (in vivo): 8.33e-06 s⁻¹ | tmax (in vivo): 1.09 ± 0.57 h | Cl/F ([5]; rat plasma, single oral metformin 100 mg/kg b.w. alone (VMET group)): 6.31 ± 1.48 (23.5) L/h | AUC0-t [5, 10]: 3.64 ± 1.15 (31.6) µg × h/mL | AUC0-∞ [5, 10]: 10.88 ± 4.50 (41.4) µg × h/mL | Cl/F [5, 10]: 5.50 ± 3.08 (56.0) L/h | Cmax [5, 10]: 0.46 ± 0.26 (56.5) µg/mL | MRT0-t [5, 10]: 8.65 ± 2.22 (25.7) h | Vd/F [5, 10]: 297.89 ± 133.23 (44.7) L | k el [5, 10]: 0.03 ± 0.04 (133.3) h^−1 | tmax [5, 10]: 1.88 ± 0.23 (12.2) h | increase in tmax with co-administered sorafenib ([5]; rats, IISOR+MET group vs VMET group): 71.39%
Compound: CN(C)C(=N)N=C(N)N [metformin]
adverse effects ([1]; 100 mg/kg single oral dose): did not cause any adverse effects | plasma protein-bound fraction [4]: negligible

AUC0-t [7, 11]: 105000 ± 18900 ng·h/mL | AUC0-t [7, 12]: 35200 ± 8360 ng·h/mL | AUC0-t [7, 13]: 62800 ± 16100 ng·h/mL | AUC(0-inf) [7, 11]: 106000 ± 19300 ng·h/mL | AUC(0-inf) [7, 12]: 36800 ± 8960 ng·h/mL | Cmax [7, 11]: 3660 ± 1210 ng/mL | Cmax [7, 12]: 1270 ± 380 ng/mL | Vd/F [7, 11]: 9.98 ± 2.48 L | Vd/F [7, 12]: 34.1 ± 18.7 L | Vd/F [7, 13]: 25.3 ± 11.6 L | k el [7, 11]: 1.39e-05 s⁻¹ | k el [7, 12]: 1.39e-05 s⁻¹ | k el [7, 13]: 9.72e-06 s⁻¹ | half-life [7, 11]: 14.7 ± 3.17 h | half-life [7, 12]: 16.3 ± 3.72 h | half-life [7, 13]: 21.9 ± 7.79 h | ka [7, 11]: 0.20 ± 0.11 (53.2) h^−1 | ka [7, 12]: 0.35 ± 0.23 (66.8) h^−1 | ka [7, 13]: 0.74 ± 0.31 (42.5) h^−1 | decrease in AUC0-t in the presence of metformin [7, 14]: 44.0% | decrease in AUC0-∞ in the presence of metformin [7, 14]: 45.1% | decrease in ka in the presence of metformin [7, 14]: 0.5 fold | increase in clearance in the presence of metformin [7, 14]: 76.3% | decrease in ka with co-administered atorvastatin [7, 15]: 73.0% | decrease in t1/2 with co-administered atorvastatin [7, 15]: 0.3 fold | increase in AUC0-t with co-administered atorvastatin [7, 15]: 66.6% | increase in AUC0-∞ with co-administered atorvastatin [7, 15]: 58.7% | increase in AUC with co-administered atorvastatin (abstract) [7, 15]: 66.6% | increase in Cmax with co-administered atorvastatin [7, 15]: 134.6% | increase in kel with co-administered atorvastatin [7, 15]: 42.9% | increase in tmax with co-administered atorvastatin [7, 15]: 116.9%
Compound: CNC(=O)c1cc(Oc2ccc(NC(=O)Nc3ccc(Cl)c(C(F)(F)F)c3)cc2)ccn1 [Sorafenib, sorafenib]
protein-bound form in plasma [4]: 99.5% | decrease in sorafenib absorption with a high-fat diet ([6]; clinically important interaction): 30% | share in the systemic circulation ([6]; sorafenib unchanged or as sorafenib N-oxide): 70−85%

AUC0-t [9]: 4.10 ± 1.56 (38.1) µg × h/mL | AUC0-∞ [9]: 8.61 ± 2.19 (25.4) µg × h/mL | k el [9]: 0.016 ± 0.010 (60.9) h^−1 | tmax [9]: 16.38 ± 8.21 (50.1) h
Compound: CNC(=O)c1cc(Oc2ccc(NC(=O)Nc3ccc(Cl)c(C(F)(F)F)c3)cc2)cc[n+]1[O-] [Sorafenib N-oxide, sorafenib N-oxide]
